Results published in US20210300924A1, “5-[6-[[3-(4,5,6,7-TETRAHYDROPYRAZOLO[4,3-C]PYRIDIN-1-YL)AZETIDIN-1-YL]METHYL]MORPHOLIN-4-YL]QUINOLINE-8-CARBONITRILE DERIVATIVES AND SIMILAR COMPOUNDS AS TLR7-9 ANTAGONISTS FOR TREATING SYSTEMIC LUPUS ERYTHEMATOSUS” (Hoffmann-La Roche Inc., priority 2018, published 2021).

Target: T1, TLR9 (Homo sapiens, UniProt Q9NR96)
T1 sequence (Q9NR96 26-1032): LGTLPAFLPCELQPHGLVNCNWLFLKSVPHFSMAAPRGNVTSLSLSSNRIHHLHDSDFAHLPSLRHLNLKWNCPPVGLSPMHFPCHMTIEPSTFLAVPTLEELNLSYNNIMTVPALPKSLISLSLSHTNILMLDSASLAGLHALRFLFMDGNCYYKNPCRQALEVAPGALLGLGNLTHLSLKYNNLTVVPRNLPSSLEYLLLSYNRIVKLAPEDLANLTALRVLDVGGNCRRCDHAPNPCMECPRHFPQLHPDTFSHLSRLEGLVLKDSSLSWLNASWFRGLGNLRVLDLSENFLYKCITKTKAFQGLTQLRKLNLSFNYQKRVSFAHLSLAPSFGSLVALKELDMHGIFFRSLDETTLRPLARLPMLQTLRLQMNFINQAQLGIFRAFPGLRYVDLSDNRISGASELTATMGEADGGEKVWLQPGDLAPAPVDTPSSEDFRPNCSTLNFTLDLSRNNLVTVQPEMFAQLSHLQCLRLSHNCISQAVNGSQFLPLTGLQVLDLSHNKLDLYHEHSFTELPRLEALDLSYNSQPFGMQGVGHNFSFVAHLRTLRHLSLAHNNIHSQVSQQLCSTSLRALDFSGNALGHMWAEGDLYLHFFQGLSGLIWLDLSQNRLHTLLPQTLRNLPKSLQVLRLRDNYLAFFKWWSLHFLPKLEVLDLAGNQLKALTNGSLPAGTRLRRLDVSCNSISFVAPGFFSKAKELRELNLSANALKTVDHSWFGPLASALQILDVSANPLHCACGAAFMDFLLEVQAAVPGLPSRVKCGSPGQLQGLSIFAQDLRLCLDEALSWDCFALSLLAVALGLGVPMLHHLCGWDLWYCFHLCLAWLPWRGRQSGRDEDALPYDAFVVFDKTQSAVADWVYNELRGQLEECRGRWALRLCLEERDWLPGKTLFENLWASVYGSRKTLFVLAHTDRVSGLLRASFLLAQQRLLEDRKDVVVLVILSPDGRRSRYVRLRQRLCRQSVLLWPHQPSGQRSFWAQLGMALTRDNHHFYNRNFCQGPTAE
Assay: HEK293-Blue-hTLR-9 cells assay
Type: cell-based
Design: host or cells: HEK293 (HEK-Blue hTLR9)
Conditions: HEK293-Blue-hTLR9 cells, ODN2006 stimulation, 20 hrs, SEAP reporter; read-out: HEK/hTLR9 IC50
Text: HEK293-Blue-hTLR-9 Cells Assay:
A stable HEK293-Blue-hTLR-9 cell line was purchased from InvivoGen (Cat. #: hkb-htlr9, San Diego, Calif., USA). These cells were originally designed for studying the stimulation of human TLR9 by monitoring the activation of NF-κB. A SEAP (secreted embryonic alkaline phosphatase) reporter gene was placed under the control of the IFN-β minimal promoter fused to five NF-κB and AP-1-binding sites. The SEAP was induced by activating NF-κB and AP-1 via stimulating HEK-Blue hTLR9 cells with TLR9 ligands. Therefore the reporter expression was declined by TLR9 antagonist under the stimulation of a ligand, such as ODN2006 (Cat. #: tlr1-2006-1, Invivogen, San Diego, Calif., USA), for incubation of 20 hrs. The cell culture supernatant SEAP reporter activity was determined using QUANTI-Blue™ kit (Cat. #: rep-01, Invivogen, San Diego, Calif., USA) at a wavelength of 640 nm, a detection medium that turns purple or blue in the presence of alkaline phosphatase.
HEK293-Blue-hTLR9 cells were incubated at a density of 250,000-450,000 cells/mL in a volume of 170 μL in a 96-well plate in Dulbecco's Modified Eagle's medium (DMEM) containing 4.5 g/L glucose, 50 U/mL penicillin, […], 2 mM L-glutamine, 10% (v/v) heat-inactivated fetal bovine serum with addition of 20 μL test compound in a serial dilution in the presence of final DMSO at 1% and 10 μL of 20 uM ODN2006 in above DMEM, perform incubation under 37° C. in a CO2 incubator for 20 hrs. Then 20 μL of the supernatant from each well was incubated with 180 μL Quanti-blue substrate solution at 37° C. for 2 h and the absorbance was read at 620-655 nm using a spectrophotometer. The signaling pathway that TLR9 activation leads to downstream NF-κB activation has been widely accepted, and therefore similar reporter assay was modified for evaluating TLR9 antagonist.

Row | IC50 [µM] | SMILES
1 | 0.128 | Cc1c2c(nn1C1CN(C[C@H]3CN(c4ccc(C#N)c5ncccc45)C[C@@H](C)O3)C1)CCN(C)C2 [Example 15, 5-[(2S,6R)-2-[[3-(3,5-dimethyl-6,7-dihydro-4H-pyrazolo[4,3-c]pyridin-2-yl)azetidin-1-yl]methyl]-6-methyl-morpholin-4-yl]quinoline-8-carbonitrile]
2 | 0.078 | C[C@@H]1Cc2c(cnn2C2CN(C[C@H]3CN(c4ccc(C#N)c5ncccc45)C[C@@H](C)O3)C2)CN1 [Example 16, 5-[(2R,6S)-2-methyl-6-[[3-[(6R)-6-methyl-4,5,6,7-tetrahydropyrazolo[4,3-c]pyridin-1-yl]azetidin-1-yl]methyl]morpholin-4-yl]quinoline-8-carbonitrile]
3 | 0.088 | C[C@@H]1Cc2nn(C3CN(C[C@H]4CN(c5ccc(C#N)c6ncccc56)C[C@@H](C)O4)C3)cc2CN1 [Example 17, 5-[(2R,6S)-2-methyl-6-[[3-[(6R)-6-methyl-4,5,6,7-tetrahydropyrazolo[4,3-c]pyridin-2-yl]azetidin-1-yl]methyl]morpholin-4-yl]quinoline-8-carbonitrile]
4 | 0.147 | C[C@@H]1CN(c2ccc(C#N)c3ncccc23)C[C@H](CN2CC(n3ncc4c3C[C@H](C)NC4)C2)O1 [Example 18, 5-[(2R,6S)-2-methyl-6-[[3-[(6S)-6-methyl-4,5,6,7-tetrahydropyrazolo[4,3-c]pyridin-1-yl]azetidin-1-yl]methyl]morpholin-4-yl]quinoline-8-carbonitrile]
5 | 0.122 | C[C@@H]1CN(c2ccc(C#N)c3ncccc23)C[C@H](CN2CC(n3cc4c(n3)C[C@H](C)NC4)C2)O1 [Example 19, 5-[(2R,6S)-2-methyl-6-[[3-[(6S)-6-methyl-4,5,6,7-tetrahydropyrazolo[4,3-c]pyridin-2-yl]azetidin-1-yl]methyl]morpholin-4-yl]quinoline-8-carbonitrile]
6 | 0.076 | C[C@@H]1CN(c2ccc(C#N)c3ncccc23)C[C@H](CN2CC(n3ncc4c3CCN[C@@H]4C)C2)O1 [Example 20, 5-[(2R,6S)-2-methyl-6-[[3-[(4R)-4-methyl-4,5,6,7-tetrahydropyrazolo[4,3-c]pyridin-1-yl]azetidin-1-yl]methyl]morpholin-4-yl]quinoline-8-carbonitrile]
7 | 0.08 | C[C@@H]1CN(c2ccc(C#N)c3ncccc23)C[C@H](CN2CC(n3cc4c(n3)CCN[C@@H]4C)C2)O1 [Example 21, 5-[(2R,6S)-2-methyl-6-[[3-[(4R)-4-methyl-4,5,6,7-tetrahydropyrazolo[4,3-c]pyridin-2-yl]azetidin-1-yl]methyl]morpholin-4-yl]quinoline-8-carbonitrile]
8 | 0.07 | C[C@@H]1CN(c2ccc(C#N)c3ncccc23)C[C@H](CN2CC(n3ncc4c3CCN[C@H]4C)C2)O1 [Example 22, 5-[(2R,6S)-2-methyl-6-[[3-[(4S)-4-methyl-4,5,6,7-tetrahydropyrazolo[4,3-c]pyridin-1-yl]azetidin-1-yl]methyl]morpholin-4-yl]quinoline-8-carbonitrile]
9 | 0.084 | C[C@@H]1CN(c2ccc(C#N)c3ncccc23)C[C@H](CN2CC(n3cc4c(n3)CCN[C@H]4C)C2)O1 [Example 23, 5-[(2R,6S)-2-methyl-6-[[3-[(4S)-4-methyl-4,5,6,7-tetrahydropyrazolo[4,3-c]pyridin-2-yl]azetidin-1-yl]methyl]morpholin-4-yl]quinoline-8-carbonitrile]
10 | 0.098 | C[C@@H]1CN(c2ccc(C#N)c3ncccc23)C[C@H](CN2CC(n3cc4c(n3)C(C)(C)CNC4)C2)O1 [Example 24, 5-[(2S,6R)-2-[[3-(7,7-dimethyl-5,6-dihydro-4H-pyrazolo[4,3-c]pyridin-2-yl)azetidin-1-yl]methyl]-6-methyl-morpholin-4-yl]quinoline-8-carbonitrile]
11 | 0.082 | C[C@@H]1CN(c2ccc(C#N)c3ncccc23)C[C@H](CN2CCC(n3ncc4c3CCNC4)CC2)O1 [Example 35, 5-[(2R,6S)-2-methyl-6-[[4-(4,5,6,7-tetrahydropyrazolo[4,3-c]pyridin-1-yl)-1-piperidyl]methyl]morpholin-4-yl]quinoline-8-carbonitrile]
12 | 0.055 | C[C@@H]1CN(c2ccc(C#N)c3ncccc23)C[C@H](CN2CCC(n3cc4c(n3)CCNC4)CC2)O1 [Example 36, 5-[(2R,6S)-2-methyl-6-[[4-(4,5,6,7-tetrahydropyrazolo[4,3-c]pyridin-2-yl)-1-piperidyl]methyl]morpholin-4-yl]quinoline-8-carbonitrile]
13 | 0.134 | Cc1nn(C2CN(C[C@H]3CN(c4ccc(C#N)c5ncccc45)C[C@@H](C)O3)C2)c2c1CCNC2 [Example 42, 5-[(2R,6S)-2-methyl-6-[[3-(3-methyl-4,5,6,7-tetrahydropyrazolo[3,4-c]pyridin-1-yl)azetidin-1-yl]methyl]morpholin-4-yl]quinoline-8-carbonitrile]
14 | 0.083 | Cc1c2c(nn1C1CN(C[C@H]3CN(c4ccc(C#N)c5ncccc45)C[C@@H](C)O3)C1)CNCC2 [Example 43, 5-[(2R,6S)-2-methyl-6-[[3-(3-methyl-4,5,6,7-tetrahydropyrazolo[3,4-c]pyridin-2-yl)azetidin-1-yl]methyl]morpholin-4-yl]quinoline-8-carbonitrile]
